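Tested at 5 concentrations; 48 h exposure; 96-well plates; endpoints linearly interpolated, else capped at highest concentration. GI50 is the concentration that inhibits growth by half. The concentration for full growth arrest is given as TGI.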

Eight molecules from PubChem BioAssay (NCI) can be followed below.

Test systems include A549 NSCLC; HCT-15 colon; HOP-62 NSCLC; HS 578T breast; KM12 colon; NCI-H226 lung; OVCAR-3 ovarian; SF-539 CNS; SW-620 colon; UACC-62 melanoma.
Assay in all cases: NCI anticancer screen, dose series, 48 h

`O=[N+]([O-])c1cccc2ccc(N/N=C/c3ccccc3O)nc12`: the GI50 in the assay with A549 NSCLC is above 100 µM; with HCT-15 colon it was above 100 µM; in the assay with HOP-62 NSCLC, above 100 µM; in the assay with HS 578T breast, 72.4 µM; with KM12 colon, above 100 µM; in the assay on NCI-H226 lung it was above 100 µM. The GI50 in the assay with OVCAR-3 ovarian is 4.48 µM; in the assay with SF-539 CNS, above 100 µM; in the assay on SW-620 colon it was 3.88 µM; in the assay with UACC-62 melanoma, above 100 µM. Moreover, the TGI in the assay on A549 NSCLC, in the assay with HCT-15 colon, in the assay with HOP-62 NSCLC, with HS 578T breast, in the assay with KM12 colon and with NCI-H226 lung was above 100 µM in each case. Also, the TGI with OVCAR-3 ovarian, in the assay on SF-539 CNS, with SW-620 colon and with UACC-62 melanoma was above 100 µM in each case.

In the case of `COc1ccc(C2=C(c3ccc(OC)cc3)C(=O)N3CCCC3C2)cc1` (centres undefined), the GI50 in the assay with A549 NSCLC was 9.42 µM; with HCT-15 colon it was 0.733 µM; in the assay on HOP-62 NSCLC, 16.5 µM; with HS 578T breast, 69.5 µM; with KM12 colon, 9.26 µM; in the assay with NCI-H226 lung, 37.1 µM. Also, the GI50 with OVCAR-3 ovarian was 11.7 µM; with SF-539 CNS, 7.95 µM; in the assay on SW-620 colon it was 15.4 µM; with UACC-62 melanoma it was 9.09 µM. The TGI in the assay with A549 NSCLC was above 100 µM; in the assay with HCT-15 colon it was above 55.7 µM; with HOP-62 NSCLC, above 100 µM; in the assay with HS 578T breast, above 100 µM; in the assay with KM12 colon, above 100 µM; in the assay with NCI-H226 lung it was above 100 µM. Also, the TGI is above 100 µM in the assay with OVCAR-3 ovarian, 77.1 µM in the assay on SF-539 CNS, above 100 µM with SW-620 colon and above 100 µM in the assay with UACC-62 melanoma.

In the case of `Nc1c(C(=O)c2ccccc2)cnn1-c1ccc(F)cc1`, the GI50 in the assay on A549 NSCLC, with HCT-15 colon, with HOP-62 NSCLC, with HS 578T breast, in the assay with KM12 colon and with NCI-H226 lung was above 25 µM in each case. The GI50 in the assay on OVCAR-3 ovarian, in the assay with SF-539 CNS, in the assay on SW-620 colon and in the assay on UACC-62 melanoma was above 25 µM each time. The TGI with A549 NSCLC, with HCT-15 colon, in the assay with HOP-62 NSCLC, in the assay on HS 578T breast, in the assay with KM12 colon and with NCI-H226 lung was above 25 µM each time. Also, the TGI in the assay with OVCAR-3 ovarian, with SF-539 CNS, with SW-620 colon and in the assay on UACC-62 melanoma was above 25 µM each time.

For `CN(C)CCC(=O)C(=Cc1ccc(O)cc1)C(=O)CCN(C)C`, the GI50 with A549 NSCLC is above 100 µM; in the assay with HCT-15 colon, 52.5 µM; in the assay on HOP-62 NSCLC, above 100 µM; in the assay on HS 578T breast it was above 100 µM; in the assay on KM12 colon, 41.9 µM; in the assay with NCI-H226 lung it was above 100 µM. Moreover, the GI50 is above 100 µM with OVCAR-3 ovarian, above 100 µM in the assay with SF-539 CNS, 67.2 µM in the assay with SW-620 colon and above 100 µM in the assay with UACC-62 melanoma. For the same molecule, the TGI with A549 NSCLC, with HCT-15 colon, in the assay on HOP-62 NSCLC, with HS 578T breast, in the assay with KM12 colon and in the assay with NCI-H226 lung was above 100 µM in each case. For the same molecule, the TGI in the assay on OVCAR-3 ovarian, with SF-539 CNS, in the assay on SW-620 colon and with UACC-62 melanoma was above 100 µM each time.

In the case of `CN(C)C(=S)Sc1ccc([N+](=O)[O-])cc1[N+](=O)[O-]`, the GI50 in the assay on A549 NSCLC is 3.21 µM; in the assay with HCT-15 colon it was 1.46 µM; in the assay on HOP-62 NSCLC it was 8.26 µM; in the assay with HS 578T breast, 9.95 µM; in the assay on KM12 colon it was 2.81 µM; in the assay with NCI-H226 lung, 4.33 µM. For the same molecule, the GI50 in the assay on OVCAR-3 ovarian is 0.99 µM; in the assay with SF-539 CNS, 3.8 µM; in the assay with SW-620 colon, 1.1 µM; with UACC-62 melanoma, 1.71 µM. Also, the TGI turned out to be 17.6 µM in the assay with A549 NSCLC; 4.2 µM in the assay on HCT-15 colon; 21.3 µM in the assay with HOP-62 NSCLC; 56.3 µM with HS 578T breast; 12.7 µM with KM12 colon; 17.5 µM in the assay on NCI-H226 lung. In addition, the TGI in the assay on OVCAR-3 ovarian is 2.49 µM; with SF-539 CNS, 14.6 µM; in the assay on SW-620 colon, 2.79 µM; in the assay with UACC-62 melanoma, 5.97 µM.

Turning to `O=C(O)c1ccc(C(=O)O)c2c(C(=O)O)ccc(C(=O)O)c12`, the TGI in the assay on A549 NSCLC, in the assay on HCT-15 colon, in the assay on HOP-62 NSCLC, in the assay with HS 578T breast, in the assay with KM12 colon and with NCI-H226 lung was above 100 µM in each case. For the same molecule, the TGI in the assay with OVCAR-3 ovarian, in the assay with SF-539 CNS, in the assay with SW-620 colon and in the assay with UACC-62 melanoma was above 100 µM throughout.

Consider `CC(C)=CCc1cc2c(cc1O)OC[C@H]1c3cc4c(cc3O[C@@H]21)OCO4`, for which the TGI in the assay with A549 NSCLC is above 100 µM; in the assay with HCT-15 colon it was above 100 µM; in the assay on HOP-62 NSCLC, above 100 µM; in the assay on HS 578T breast, 75.5 µM; in the assay with KM12 colon, above 100 µM; with NCI-H226 lung, 69.7 µM. Moreover, the TGI in the assay with OVCAR-3 ovarian, in the assay with SF-539 CNS, in the assay with SW-620 colon and in the assay with UACC-62 melanoma was above 100 µM throughout.

`CCc1ccc(/C=C/c2ccc(O)c3ncccc23)[n+](C)c1`: the GI50 with A549 NSCLC is 0.0377 µM; with HCT-15 colon, 40.9 µM; with HS 578T breast, 51.2 µM; with KM12 colon it was 0.512 µM; in the assay on NCI-H226 lung, above 22.4 µM; in the assay on OVCAR-3 ovarian it was 0.671 µM. Moreover, the GI50 in the assay on SF-539 CNS was 20.4 µM; in the assay with SW-620 colon, 4.47 µM; in the assay on UACC-62 melanoma, above 21.5 µM. Besides, the TGI in the assay with A549 NSCLC, in the assay with HCT-15 colon, in the assay with HOP-62 NSCLC, with HS 578T breast, in the assay with KM12 colon and in the assay with NCI-H226 lung was above 100 µM each time. Moreover, the TGI in the assay with OVCAR-3 ovarian is above 23.4 µM; in the assay with SF-539 CNS, above 100 µM; with SW-620 colon, above 100 µM; in the assay with UACC-62 melanoma, above 100 µM.
